What was measured:
[1] = biological target: T1, Dual specificity protein kinase CLK1 (Homo sapiens, UniProt P49759); type: cell-based, Sf9
Target sequence in this assay (P49759 whole entry): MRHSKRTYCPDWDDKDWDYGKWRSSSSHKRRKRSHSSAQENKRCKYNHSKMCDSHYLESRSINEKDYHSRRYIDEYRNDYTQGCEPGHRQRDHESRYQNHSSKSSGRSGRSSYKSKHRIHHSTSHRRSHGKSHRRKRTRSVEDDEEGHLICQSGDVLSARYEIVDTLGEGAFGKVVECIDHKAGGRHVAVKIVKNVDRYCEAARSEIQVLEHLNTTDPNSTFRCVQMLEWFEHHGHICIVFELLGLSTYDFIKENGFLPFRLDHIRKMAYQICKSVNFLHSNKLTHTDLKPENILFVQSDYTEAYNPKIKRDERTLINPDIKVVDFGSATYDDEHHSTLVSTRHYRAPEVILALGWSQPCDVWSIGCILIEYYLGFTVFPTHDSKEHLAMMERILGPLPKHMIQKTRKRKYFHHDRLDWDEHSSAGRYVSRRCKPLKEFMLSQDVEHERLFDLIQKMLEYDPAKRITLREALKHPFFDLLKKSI

[2] = biological target: T2, Dual specificity tyrosine-phosphorylation-regulated kinase 2 (Homo sapiens, UniProt Q92630)
T2 sequence (Q92630 whole entry): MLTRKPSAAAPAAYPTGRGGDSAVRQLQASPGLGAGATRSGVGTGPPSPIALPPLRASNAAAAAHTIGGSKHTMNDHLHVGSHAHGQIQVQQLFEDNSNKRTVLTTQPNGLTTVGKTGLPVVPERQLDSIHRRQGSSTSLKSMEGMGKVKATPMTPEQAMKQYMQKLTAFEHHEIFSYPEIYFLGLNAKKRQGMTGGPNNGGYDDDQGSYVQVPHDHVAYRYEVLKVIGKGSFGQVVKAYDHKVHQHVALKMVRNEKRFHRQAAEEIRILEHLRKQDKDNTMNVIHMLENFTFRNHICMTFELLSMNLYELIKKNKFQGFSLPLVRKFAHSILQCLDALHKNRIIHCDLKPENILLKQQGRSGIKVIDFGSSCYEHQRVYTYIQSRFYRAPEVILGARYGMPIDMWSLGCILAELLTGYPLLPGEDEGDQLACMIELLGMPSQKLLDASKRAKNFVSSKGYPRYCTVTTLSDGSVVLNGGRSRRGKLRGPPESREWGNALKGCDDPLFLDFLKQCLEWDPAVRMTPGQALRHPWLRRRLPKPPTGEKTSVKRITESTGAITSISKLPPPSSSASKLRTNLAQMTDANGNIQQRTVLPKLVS

[3] = biological target: T3, Casein kinase I isoform epsilon (Homo sapiens, UniProt P49674); conditions: dose 10.0 µM
Target sequence in this assay (P49674 whole entry, looked up, canonical isoform): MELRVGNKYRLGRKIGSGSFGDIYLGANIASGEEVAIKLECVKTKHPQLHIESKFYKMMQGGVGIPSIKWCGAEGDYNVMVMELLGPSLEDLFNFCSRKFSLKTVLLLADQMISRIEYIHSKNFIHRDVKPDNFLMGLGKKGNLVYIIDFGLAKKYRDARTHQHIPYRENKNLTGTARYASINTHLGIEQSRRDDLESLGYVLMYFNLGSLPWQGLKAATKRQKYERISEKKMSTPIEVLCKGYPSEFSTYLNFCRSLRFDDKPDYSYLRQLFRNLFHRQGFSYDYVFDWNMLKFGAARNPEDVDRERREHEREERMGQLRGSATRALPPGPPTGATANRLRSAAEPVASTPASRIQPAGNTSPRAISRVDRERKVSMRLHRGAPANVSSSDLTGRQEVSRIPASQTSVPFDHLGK

[4] = biological target: Serine/threonine-protein kinase haspin (Homo sapiens) (UniProt Q8TF76); conditions: dose 10.0 µM
[5] = biological target: Cyclin-dependent kinase 5/CDK5 activator 1 (Homo sapiens, UniProt Q00535); type: cell-based, Sf9
[6] = biological target: Casein kinase II subunit alpha (Homo sapiens) (UniProt P68400); conditions: dose 10.0 µM
[7] = biological target: AP2-associated protein kinase 1 (Homo sapiens) (UniProt Q2M2I8); conditions: dose 10.0 µM
[8] = biological target: T1, Dual specificity protein kinase CLK1; conditions: dose 10.0 µM
Target sequence in this assay (P49759 whole entry, looked up): as the sequence (P49759 whole entry) above

[9] = biological target: Dual specificity tyrosine-phosphorylation-regulated kinase 2 (Homo sapiens) (UniProt Q92630); conditions: dose 10.0 µM
[10] = biological target: T4, Glycogen synthase kinase-3 beta (Homo sapiens, UniProt P49841); type: cell-based, Sf9
[11] = biological target: Dual specificity protein kinase CLK4 (Homo sapiens, UniProt Q9HAZ1)
[12] = biological target: T5, Dual specificity tyrosine-phosphorylation-regulated kinase 1A (Homo sapiens, UniProt Q13627); conditions: dose 10.0 µM
[13] = biological target: T4, Glycogen synthase kinase-3 beta; conditions: dose 10.0 µM
[14] = biological target: T3, Casein kinase I isoform epsilon
Target sequence in this assay (P49674 whole entry, canonical isoform): as the sequence (P49674 whole entry, looked up, canonical isoform) above

[15] = biological target: BMP-2-inducible protein kinase (Homo sapiens) (UniProt Q9NSY1); conditions: dose 10.0 µM
[16] = biological target: Calcium/calmodulin-dependent protein kinase kinase 2 (Homo sapiens) (UniProt Q96RR4); conditions: dose 10.0 µM
[17] = biological target: T6, Mitogen-activated protein kinase 15 (Homo sapiens) (UniProt Q8TD08); conditions: dose 10.0 µM
T6 sequence (whole entry): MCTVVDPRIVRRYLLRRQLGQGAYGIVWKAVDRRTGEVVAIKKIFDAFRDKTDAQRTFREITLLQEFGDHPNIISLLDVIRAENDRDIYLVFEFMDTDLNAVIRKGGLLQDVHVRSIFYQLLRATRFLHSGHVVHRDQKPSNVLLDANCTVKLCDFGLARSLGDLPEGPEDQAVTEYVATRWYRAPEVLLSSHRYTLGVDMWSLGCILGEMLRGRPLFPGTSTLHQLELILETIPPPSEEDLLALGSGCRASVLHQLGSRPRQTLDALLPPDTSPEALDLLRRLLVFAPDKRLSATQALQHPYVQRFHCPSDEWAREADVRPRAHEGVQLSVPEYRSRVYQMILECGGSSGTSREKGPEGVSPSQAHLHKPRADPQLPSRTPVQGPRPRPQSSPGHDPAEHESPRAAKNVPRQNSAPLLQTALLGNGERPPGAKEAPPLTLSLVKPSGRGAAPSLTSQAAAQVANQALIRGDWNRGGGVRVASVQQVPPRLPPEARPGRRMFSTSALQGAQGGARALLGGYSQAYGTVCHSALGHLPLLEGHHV

[18] = biological target: Dual specificity protein kinase CLK3 (Homo sapiens, UniProt P49761); conditions: dose 10.0 µM
[19] = biological target: Dual specificity protein kinase CLK2 (Homo sapiens, UniProt P49760)
[20] = biological target: T7, Dual specificity tyrosine-phosphorylation-regulated kinase 4 (Homo sapiens, UniProt Q9NR20)
T7 sequence (Q9NR20 whole entry): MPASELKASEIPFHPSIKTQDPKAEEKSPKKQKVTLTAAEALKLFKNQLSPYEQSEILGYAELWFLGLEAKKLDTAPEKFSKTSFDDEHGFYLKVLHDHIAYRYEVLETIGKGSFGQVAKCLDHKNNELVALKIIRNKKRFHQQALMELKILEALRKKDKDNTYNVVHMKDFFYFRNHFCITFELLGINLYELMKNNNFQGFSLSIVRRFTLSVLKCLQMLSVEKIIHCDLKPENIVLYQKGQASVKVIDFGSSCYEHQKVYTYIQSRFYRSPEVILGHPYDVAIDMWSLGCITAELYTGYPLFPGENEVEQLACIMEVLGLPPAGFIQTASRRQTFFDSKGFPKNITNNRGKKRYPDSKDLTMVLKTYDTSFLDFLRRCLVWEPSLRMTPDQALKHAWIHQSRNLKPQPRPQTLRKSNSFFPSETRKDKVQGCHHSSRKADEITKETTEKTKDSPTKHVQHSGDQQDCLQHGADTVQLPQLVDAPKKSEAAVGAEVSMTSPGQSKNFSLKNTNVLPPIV

[21] = biological target: Homeodomain-interacting protein kinase 2 (Homo sapiens) (UniProt Q9H2X6); conditions: dose 10.0 µM
[22] = biological target: T5, Dual specificity tyrosine-phosphorylation-regulated kinase 1A
[23] = biological target: Myotonin-protein kinase (Homo sapiens) (UniProt Q09013); conditions: dose 10.0 µM
Sequence of Myotonin-protein kinase (Homo sapiens) (Q09013 whole entry): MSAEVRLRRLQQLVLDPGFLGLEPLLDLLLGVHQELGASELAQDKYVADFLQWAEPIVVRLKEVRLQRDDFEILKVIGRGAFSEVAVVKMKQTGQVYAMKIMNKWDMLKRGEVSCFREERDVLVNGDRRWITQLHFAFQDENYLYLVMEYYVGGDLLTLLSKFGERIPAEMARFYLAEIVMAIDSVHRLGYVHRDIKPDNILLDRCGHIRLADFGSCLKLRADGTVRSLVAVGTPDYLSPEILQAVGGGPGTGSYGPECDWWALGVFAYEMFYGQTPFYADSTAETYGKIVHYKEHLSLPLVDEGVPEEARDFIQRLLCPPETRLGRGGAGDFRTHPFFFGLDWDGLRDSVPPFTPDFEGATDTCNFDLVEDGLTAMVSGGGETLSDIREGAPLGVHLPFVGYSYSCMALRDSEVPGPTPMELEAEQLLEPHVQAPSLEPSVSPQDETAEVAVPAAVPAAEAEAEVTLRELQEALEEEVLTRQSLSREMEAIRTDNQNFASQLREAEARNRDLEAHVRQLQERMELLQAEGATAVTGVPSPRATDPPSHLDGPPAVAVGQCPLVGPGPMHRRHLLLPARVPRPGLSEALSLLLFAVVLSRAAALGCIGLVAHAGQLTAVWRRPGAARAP

Sequence of Cyclin-dependent kinase 5/CDK5 activator 1 (Q00535 whole entry): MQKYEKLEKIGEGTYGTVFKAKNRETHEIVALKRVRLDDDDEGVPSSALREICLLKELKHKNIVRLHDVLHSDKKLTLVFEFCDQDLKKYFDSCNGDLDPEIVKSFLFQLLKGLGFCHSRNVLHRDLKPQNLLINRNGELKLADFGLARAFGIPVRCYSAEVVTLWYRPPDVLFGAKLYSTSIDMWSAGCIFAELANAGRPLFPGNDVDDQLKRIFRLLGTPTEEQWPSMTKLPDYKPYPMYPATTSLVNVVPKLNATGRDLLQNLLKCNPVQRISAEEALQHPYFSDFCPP
Sequence of Cyclin-dependent kinase 5/CDK5 activator 1 (Q15078 whole entry, further chain): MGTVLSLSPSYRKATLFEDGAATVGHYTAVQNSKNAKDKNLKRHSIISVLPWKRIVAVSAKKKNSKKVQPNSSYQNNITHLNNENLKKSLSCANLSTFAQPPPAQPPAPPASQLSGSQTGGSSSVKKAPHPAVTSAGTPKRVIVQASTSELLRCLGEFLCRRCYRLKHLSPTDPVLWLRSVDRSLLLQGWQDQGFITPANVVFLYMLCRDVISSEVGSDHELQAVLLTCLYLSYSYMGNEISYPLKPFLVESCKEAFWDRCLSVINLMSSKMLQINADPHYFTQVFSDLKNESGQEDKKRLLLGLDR
Sequence of BMP-2-inducible protein kinase (Homo sapiens) (Q9NSY1 whole entry, looked up): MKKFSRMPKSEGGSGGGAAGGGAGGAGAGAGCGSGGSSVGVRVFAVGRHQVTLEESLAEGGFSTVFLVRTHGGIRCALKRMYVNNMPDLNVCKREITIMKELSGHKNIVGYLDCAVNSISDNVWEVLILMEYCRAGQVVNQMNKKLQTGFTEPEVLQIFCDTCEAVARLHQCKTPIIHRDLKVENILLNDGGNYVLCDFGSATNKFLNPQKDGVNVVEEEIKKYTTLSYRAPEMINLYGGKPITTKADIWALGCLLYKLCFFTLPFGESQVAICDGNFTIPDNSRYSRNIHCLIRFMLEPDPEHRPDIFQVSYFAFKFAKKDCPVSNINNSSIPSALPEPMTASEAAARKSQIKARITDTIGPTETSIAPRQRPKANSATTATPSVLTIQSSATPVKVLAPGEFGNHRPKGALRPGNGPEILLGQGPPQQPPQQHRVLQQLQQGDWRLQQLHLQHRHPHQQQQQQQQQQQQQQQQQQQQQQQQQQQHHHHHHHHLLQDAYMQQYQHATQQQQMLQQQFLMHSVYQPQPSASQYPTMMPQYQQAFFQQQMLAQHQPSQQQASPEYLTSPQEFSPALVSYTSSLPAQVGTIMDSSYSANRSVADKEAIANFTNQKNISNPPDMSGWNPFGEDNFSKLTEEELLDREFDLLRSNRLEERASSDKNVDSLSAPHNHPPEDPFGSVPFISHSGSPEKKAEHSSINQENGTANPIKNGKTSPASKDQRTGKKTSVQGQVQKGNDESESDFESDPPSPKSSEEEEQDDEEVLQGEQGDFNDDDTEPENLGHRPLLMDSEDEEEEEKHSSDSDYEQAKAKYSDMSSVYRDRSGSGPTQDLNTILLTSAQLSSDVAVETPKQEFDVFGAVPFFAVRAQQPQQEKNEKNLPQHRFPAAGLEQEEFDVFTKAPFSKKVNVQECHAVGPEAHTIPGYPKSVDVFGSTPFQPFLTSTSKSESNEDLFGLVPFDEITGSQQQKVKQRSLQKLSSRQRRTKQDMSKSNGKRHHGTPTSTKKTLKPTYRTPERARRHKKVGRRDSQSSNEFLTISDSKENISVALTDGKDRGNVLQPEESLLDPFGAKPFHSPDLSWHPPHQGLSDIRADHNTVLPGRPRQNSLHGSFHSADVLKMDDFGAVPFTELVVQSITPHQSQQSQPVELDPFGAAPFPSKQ
Sequence of Dual specificity protein kinase CLK2 (P49760 whole entry): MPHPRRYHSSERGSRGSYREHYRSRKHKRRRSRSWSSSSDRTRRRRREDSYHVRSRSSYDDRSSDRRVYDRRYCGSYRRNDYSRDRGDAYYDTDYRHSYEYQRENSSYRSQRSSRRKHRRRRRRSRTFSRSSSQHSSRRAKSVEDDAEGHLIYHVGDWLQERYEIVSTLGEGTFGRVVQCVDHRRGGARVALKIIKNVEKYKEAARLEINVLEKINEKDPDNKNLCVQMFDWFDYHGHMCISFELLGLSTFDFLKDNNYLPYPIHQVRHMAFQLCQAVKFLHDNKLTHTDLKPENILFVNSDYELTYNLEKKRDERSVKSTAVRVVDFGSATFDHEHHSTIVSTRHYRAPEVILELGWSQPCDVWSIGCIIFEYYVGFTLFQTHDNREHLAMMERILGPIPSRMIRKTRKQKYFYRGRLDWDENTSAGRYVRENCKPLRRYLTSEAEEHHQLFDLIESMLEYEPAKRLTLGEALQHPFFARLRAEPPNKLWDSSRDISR
Sequence of AP2-associated protein kinase 1 (Homo sapiens) (Q2M2I8 whole entry, looked up): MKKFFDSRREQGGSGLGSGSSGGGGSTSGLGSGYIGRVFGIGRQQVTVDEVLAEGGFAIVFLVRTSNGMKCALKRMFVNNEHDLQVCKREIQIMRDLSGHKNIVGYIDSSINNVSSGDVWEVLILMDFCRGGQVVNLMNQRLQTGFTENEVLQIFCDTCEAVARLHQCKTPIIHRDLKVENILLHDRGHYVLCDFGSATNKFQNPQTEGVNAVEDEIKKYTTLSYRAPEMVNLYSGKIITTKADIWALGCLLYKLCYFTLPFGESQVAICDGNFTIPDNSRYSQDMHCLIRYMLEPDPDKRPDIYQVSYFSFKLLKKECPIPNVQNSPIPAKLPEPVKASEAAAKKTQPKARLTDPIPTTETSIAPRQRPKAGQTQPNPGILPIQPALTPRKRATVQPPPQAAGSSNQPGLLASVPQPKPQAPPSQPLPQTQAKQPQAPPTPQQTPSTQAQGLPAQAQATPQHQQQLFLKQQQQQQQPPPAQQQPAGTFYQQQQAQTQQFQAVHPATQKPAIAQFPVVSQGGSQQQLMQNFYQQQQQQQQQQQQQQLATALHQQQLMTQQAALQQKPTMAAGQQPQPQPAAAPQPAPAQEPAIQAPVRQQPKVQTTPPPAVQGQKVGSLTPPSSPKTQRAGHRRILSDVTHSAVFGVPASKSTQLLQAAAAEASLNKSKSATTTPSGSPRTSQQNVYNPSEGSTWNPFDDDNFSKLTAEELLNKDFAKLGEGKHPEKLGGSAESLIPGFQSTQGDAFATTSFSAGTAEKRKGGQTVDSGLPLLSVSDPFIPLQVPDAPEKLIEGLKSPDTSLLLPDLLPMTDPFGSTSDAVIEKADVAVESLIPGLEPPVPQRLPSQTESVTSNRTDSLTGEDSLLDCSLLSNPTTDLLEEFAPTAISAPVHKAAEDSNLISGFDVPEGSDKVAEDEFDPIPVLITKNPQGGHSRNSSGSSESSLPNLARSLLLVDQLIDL

Question: O=C1NC(NC23CC4CC(CC(C4)C2)C3)=N/C1=C\c1ccc2scnc2c1 was tested. Which IC50 [1] did it give?
Answer: 8.96 µM

Question: What about the IC50 [2] of the same compound?
Answer: > 10 µM

Question: What about the ΔTm [3] of the same compound?
Answer: -2.5 °C

Question: What about the ΔTm [4] of the same compound?
Answer: -0.1 °C

Question: What about the IC50 [5] of the same compound?
Answer: > 10 µM

Question: What about the ΔTm [6] of the same compound?
Answer: 0.3 °C

Question: And the ΔTm [7]?
Answer: 0 °C

Question: What about the ΔTm [8] of the same compound?
Answer: 2 °C

Question: What about the ΔTm [9] of the same compound?
Answer: 0 °C

Question: What about the IC50 [10] of the same compound?
Answer: > 10 µM

Question: What about the IC50 [11] of the same compound?
Answer: 3.5 µM

Question: And the ΔTm [12]?
Answer: 3.2 °C

Question: And the ΔTm [13]?
Answer: 0.9 °C

Question: What about the IC50 [14] of the same compound?
Answer: > 10 µM

Question: What about the ΔTm [15] of the same compound?
Answer: -0.1 °C

Question: What about the ΔTm [16] of the same compound?
Answer: -0.5 °C

Question: And the ΔTm [17]?
Answer: -0.2 °C

Question: What about the ΔTm [18] of the same compound?
Answer: -0.5 °C

Question: And the IC50 [19]?
Answer: 8.34 µM

Question: And the IC50 [20]?
Answer: > 10 µM

Question: What about the ΔTm [21] of the same compound?
Answer: -0.4 °C

Question: What about the IC50 [22] of the same compound?
Answer: 3.4 µM

Question: And the ΔTm [23]?
Answer: 0.1 °C

Reference: ChEMBL document CHEMBL5360622, “Leucettinibs, a Class of DYRK/CLK Kinase Inhibitors Inspired by the Marine Sponge Natural Product Leucettamine B” (J Med Chem, 2023)
